Assay: Saturation concentration in different oils (soy, sunflower, rapeseed)
Type: physicochemical
Settings: 25° C.
Experimental: Each of said mixtures was continuously and gently stirred for 10 minutes at ambient temperature (25° C.) and then maintained at rest for 60 minutes. The saturation concentration was considered to be that which was immediately less than a concentration where deposition was observed, but in which no deposition of the active ingredient was observed.

Which Saturation concentration (Rapeseed oil) does the source give for `C[C@@H](OC1OCCN(Cc2nc(=O)[nH][nH]2)C1c1ccc(F)cc1)c1cc(C(F)(F)F)cc(C(F)(F)F)c1` (stereo in doubt) [Aprepitant, 5-([(2R,3S)-2-((R)-1-[3,5-bis(trifluoromethyl)phenyl]ethoxy)-3-(4-fluorophenyl)morpholino]methyl)-1H-1,2,4-triazol-3(2H)-one] here?
Its Saturation concentration is 80 nM.

What about the Saturation concentration (Soy oil) of the same compound?
Its Saturation concentration is 60 nM.

And the Saturation concentration (Sunflower oil)?
Its Saturation concentration is 70 nM.
